Where a SMILES comes first, the peptide text is derived from it. Where no end group is shown, it is not given here. The star is where a group is joined. X1 = Nc1ccn([C@@H]2O[C@H](COC(=O)CCC(=O)*)[C@@H](O)C2(F)F)c(=O)n1
Tests used:
[1] = test system: A549 cells; experiment: Antitumor activity of free gemcitabine and Gem-CPP conjugates by MTT test; conditions: for cell viability: 72 h incubation, 10 % FBS; for cell viability / cytotoxicity in comparison to the free drug: 72 h, 15 and 25 µM where stated
Protocol: (§1) A549 lung carcinoma cell line was obtained from the Pasteur Institute (Iran). Cells were maintained in RPMI 1640 medium supplemented with 10 % FBS, 100 units/ml penicillin, and 100 μg/ml streptomycin and grown at 37 °C in a 5 % CO2 humidified atmosphere.
(§2) A549 cells were seeded into 96-well plates at a density of 1.5 × 10^4 cells/well and pre-incubated for 24 h. The next day, different concentrations of peptides were added to the culture medium. Cells were incubated at 37 °C for 72 h. The medium was removed and the wells were washed with PBS. The MTT assay was performed by introducing 50 μl of 2 mg/ml MTT to each well for 4 h. The culture media aspirated and then resulting formazan crystals were dissolved in DMSO and the absorbance of individual wells was obtained at 570 nm. Untreated cells were defined as 100 % viable.
The antitumor activity of free gemcitabine and its conjugates with CPPs (Gem-CPP) was investigated using MTT test after incubation for 72 h. The activity of drug-peptide conjugates i.e. Gem-R5W3R4, Gem-[RW]6, Gem-[RW]5, Gem-[RW]4 and Gem-[WR]3, was evaluated and compared with that of the free drug (Figure 6(Fig. 6)).
Figure 6 Toxicity of Gem-R5W3R4 (A), Gem-[RW]6 (B), Gem-[RW5] (C), Gem-[RW]4 (D), Gem-[RW]3 (E) and Gem to A549 cells. The cells were incubated for 3 days in 10 % FBS with or without peptides and analyzed for proliferation by MTT assay.

[2] = test system: A549 cells; experiment: Fluorescent microscopy of uptake and intracellular localization of FITC-labeled peptides; type: cell-based; conditions: FITC-labeled peptide, 25 µM, 1.5 h at 37 °C, live A549 cells, fluorescence read-out
Protocol: The cellular uptake of the FITC-labeled peptide was examined in A549 cell line. A549 cells were seeded with RPMI 1640 medium on coverslips in 6-well plates and allowed to adhere overnight. Then the medium was removed and washed with PBS. The cells were treated with FITC-labeled peptide for 1.5 h at 37 °C. After incubation, the media containing the compound were removed and the cells were washed with PBS three times. Coverslips were placed on a microscope slide (Olympus IX81 fluorescence microscope, Olympus Optical Co., Ltd., Tokyo, Japan).
The uptake and intracellular localization of FITC-labeled peptides were examined by fluorescent microscopy. […] The uptake of all peptides was examined at the concentration of 25 µM.
Figure 4 Fluorescence microscopy, visualization of FITC-labeled, R5W3R4 (A, B), [RW]6 (C, D), [RW]5 (E, F), [RW]4 (G, H), and [RW]3 (I, J) in A459 cells. The top photos show fluorescence microscopy and the bottom bright field of A459 cells. Live cells were treated with 25 µm of peptides for 1.5 h at 37 °C. Control cells were incubated in RPMI medium without the peptides.

[3] = test system: A549 cells; experiment: Flow cytometry of cellular uptake of FITC-labeled peptides; type: cell-based; conditions: FITC-labeled peptide, 1.5 h at 37 °C, trypsin treatment to remove surface-bound peptide, FACSCalibur
Protocol: A549 cells were seeded with RMPI 1640 medium in 6-well plates (3×10^5 cells/well) 24 h prior to the experiment. After 24 h, the medium was removed and washed with PBS. Then FITC-labeled peptide was added to the cells. The plates were incubated for 1.5 h at 37 °C. After that, the medium containing the peptide was removed. The cells were washed three times with PBS and detached with 0.25 % trypsin/EDTA (0.53 mM) for 5 min. To each well, 2 ml of the medium was added and centrifuged for 4 min. Cells were washed twice with PBS and finally were re-suspended in flow cytometry buffer and analyzed by FACSCalibur (Becton Dickinson, San Jose, CA, USA).
Flow cytometry was used to determine the relative amounts of internalized peptide after 1.5 h incubation at 37 °C. After the incubation, cells were treated with trypsin to remove the cell surface-bound peptides. […] The percentage of cell fluorescence was increased with increasing peptides concentration. This effect was nearly linear for the tested concentrations. There was an increase in fluorescence intensity of cells treated with peptides of higher amino acid content.
Figure 5 Cellular uptake of FITC-labeled peptides in live A549 cells after incubation. The uptake was measured as the relative fraction of positive cells (%) from flow cytometry analysis of all living cells positive for the fluorophore.

[4] = test system: A549 cells; experiment: Cytotoxicity of blank CPPs by MTT assay; conditions: 72 h peptide exposure
Protocol: as §1, §2

Q: With Nc1ccn([C@@H]2O[C@H](CO)[C@@H](O)C2(F)F)c(=O)n1 [Free drug, Gemcitabine] as the compound, how does the cell viability ([1]; 15 µM) read?
A: 20%

Q: And the cell viability ([1]; 25 µM)?
A: 20%

Q: Which “cell viability / cytotoxicity in comparison to the free drug” value [1] does the source give for N=C(N)NCCC[C@H](NC(=O)[C@H](CCCNC(=N)N)NC(=O)[C@H](CCCNC(=N)N)NC(=O)[C@H](CCCNC(=N)N)NC(=O)[C@H](Cc1c[nH]c2ccccc12)NC(=O)[C@H](Cc1c[nH]c2ccccc12)NC(=O)[C@H](Cc1c[nH]c2ccccc12)NC(=O)[C@H](CCCNC(=N)N)NC(=O)[C@H](CCCNC(=N)N)NC(=O)[C@H](CCCNC(=N)N)NC(=O)[C@H](CCCNC(=N)N)NC(=O)[C@H](CCCNC(=N)N)NC(=O)CCC(=O)OC[C@H]1O[C@@H](n2ccc(N)nc2=O)C(F)(F)[C@@H]1O)C(N)=O [Gem-R5W3R4] (X1-RRRRRWWWRRRR-NH2) here?
A: decreased cell viability

Q: For N=C(N)NCCC[C@H](NC(=O)CCC(=O)OC[C@H]1O[C@@H](n2ccc(N)nc2=O)C(F)(F)[C@@H]1O)C(=O)N[C@@H](Cc1c[nH]c2ccccc12)C(=O)N[C@@H](CCCNC(=N)N)C(=O)N[C@@H](Cc1c[nH]c2ccccc12)C(=O)N[C@@H](CCCNC(=N)N)C(=O)N[C@@H](Cc1c[nH]c2ccccc12)C(=O)N[C@@H](CCCNC(=N)N)C(=O)N[C@@H](Cc1c[nH]c2ccccc12)C(=O)N[C@@H](CCCNC(=N)N)C(=O)N[C@@H](Cc1c[nH]c2ccccc12)C(=O)N[C@@H](CCCNC(=N)N)C(=O)N[C@@H](Cc1c[nH]c2ccccc12)C(N)=O [Gem-[RW]6], which “cell viability / cytotoxicity in comparison to the free drug” value [1] is on record?
A: decreased cell viability

Q: With RRRRRWWWRRRR-NH2 [R5W3R4] as the compound, how does the “intracellular distribution (fluorescent microscopy)” value [2] read?
A: homogeneous staining throughout the intracellular space

Q: What about the “intracellular fluorescence, relative fraction of positive cells (flow cytometry)” value [3] of the same compound?
A: maximum intracellular fluorescence

Q: What about the cell toxicity value ([4]; 25 µM) of the same compound?
A: 9%

Q: What about the cell death ([4]; 50 µM) of the same compound?
A: 28%
